In patent US11110182B2, “Multifunctional RNA nanoparticles and methods for treating cancer and therapeutic resistant cancer” (University of Cincinnati, priority 2016, dated 2021):
Strand notation (5' to 3'): a small letter for the sugar, then the base; units joined by * are phosphorothioate-linked, units joined directly phosphodiester-linked; [ ] holds rarer units or linkages, { } end groups; capitals alone tell only the bases. r = 2'-OH (RNA); f = 2'-fluoro

What was measured:
[1] = system: BT474 orthotopic xenograft tumors; assay: Anti-tumor therapy in BT474 orthotopic xenograft breast tumor mouse model; type: in vivo, athymic nude mice; conditions: single agent; for tumor lung metastasis: H&E staining of whole lung
Protocol: FIG. 5A) BT474 orthotopic xenograft mouse models were treated with control pRNA-HER2apt-siScram or pRNA-HER2apt-siMED1 (4 mg/Kg) once a week, in combination with vehicle or tamoxifen (TAM, 0.5 mg/mice/day) 5 days per week. Tumor sizes were measured every three days. FIG. 5B) After three weeks, mice were i.p. injected with D-luciferin, and representative in vivo images of BT474 tumors were recorded using IVIS Lumina imaging system. FIG. 5C) Average weight of the tumors excised at the end of the treatment, and FIG. 5D) the representative photos of tumors. FIG. 5E and FIG. 5F) MED1 expression in the BT474 tumors was examined using IHC staining and FIG. 5G) immunoblotting. FIG. 5H) The expression of Ki-67 in tumor tissues was analyzed using IHC staining, and FIG. 5I) the percentage of Ki-67 positive cells was counted. Scale bar: 100 μm.
FIG. 6A) Whole lung tissues were fixed, embedded, and sectioned for H&E staining, and FIG. 6B) metastasis foci in the whole lung tissues were then counted. Arrow indicates the metastasis foci. Scale bar: 100 μm. FIG. 6C) After digesting tumor tissues with trypsin and 0.1% collagenase, tumor cells were stained for CD44 and CD24, and FIG. 6D) analyzed for CD44^+CD24^−/low stem cell population using flow cytometry. FIG. 6E) Total RNA in the tumor tissues was extracted using TRIZOL reagent, and the expression of TFF-1, FIG. 6F) c-Myc, FIG. 6G) cyclin D1, and FIG. 6H) MMP-9 were determined by real-time PCR.
Migration and metastasis assay. The 8-μm-pore-size polycarbonate membrane, which separates the two chambers of a 6.5-mm Transwell (Costar), was coated with or without 1:8 DMEM-diluted Matrigel (Corning). Transwell assay was performed as previously described.^57 Briefly, BT474 cells were treated with pRNAs alone or together with 4-hydroxy-tamoxifen (4-OHT) for 48 h and starved with serum-free DMEM containing 0.2% BSA overnight. On the next day, cells were collected and 2×10^5 cells were seeded to the upper chamber of Transwell. The lower chamber was filled with 600 μL DMEM medium containing 10% FBS. After incubation at 37° C. for 24 h, cells on the membranes were fixed and stained with 0.1% crystal violet in 20% ethanol solution. Cells at top side of membranes were removed completely, and cells at the bottom side were examined with an Olympus SZX12 microscope and counted. • Mammosphere culture and breast cancer stem cell analyses. BT474 cells were treated with pRNAs for 48 h. Then, cells were suspended in DMEM/F12 medium supplemented with 1×B27 (Thermo Fisher), 20 ng/mL bFGF and 20 ng/mL EGF (R&D), and added into 24-well ultralow attachment plates. After treatment with or without 1 μM 4-OHT for 7 days, mammosphere formation was recorded using an Axiovert S100 TV inverted microscope (Zeiss). Xenograft tumor tissues were cut into small pieces and digested with trypsin and collagenase at 37° C. for 1 h, and tumor cells were collected and rinsed with pre-cold PBS. All cells were stained with FITC-conjugated anti-CD44 antibody and PE-conjugated anti-CD24 antibody (BD Pharmingen) in the dark on ice for 30 min. After resuspension with 0.5 mL PBS buffer, CD44^+/CD24^−/low cell population was analyzed by flow cytometry. • Orthotopic xenograft breast tumor mouse model, in vivo imaging and anti-tumor therapy. Six-week-old female athymic nude mice were purchased from Charles River Laboratories, and all animal procedures were performed under IACUC-approved protocols at the University of Cincinnati. Athymic nude mice were orthotopically injected with 1×10^7 BT474-luc cells mixed with matrigel into the fat pads of the forth pair of mammary glands. When the tumor sizes reached 100-150 mm^3, the mice were randomly divided into four groups (4/group) and intravenously (i.v.) injected with pRNAs (4 mg/Kg) once a week for three weeks. For tamoxifen treatments, 0.5 mg tamoxifen (Sigma) dissolved in sesame oil was intraperitoneally (i.p.) injected into mice 5 days a week for three weeks. […]

MED1 = MED1 protein level by western blotting in BT474 cells; type: cell-based, human; conditions: BT474, 48 h
Protocol: FIG. 3A) BT474 cells were incubated with 10 μg/mL control and pRNA-HER2apt-siMED1 nanoparticles for 48 h, and MED1 mRNA level was determined by real-time PCR. FIG. 3B) BT474 cells were incubated directly with (as indicated by -) or transfected with indicated pRNAs using lipofectamine 2000. At 48 h post treatment, MED1 protein levels were determined by western blotting. FIG. 3C) BT474 cells were treated with 10 μg/mL pRNA nanoparticles for 48 h and assayed for cell viability by MTT assay. FIG. 3D) Cells were treated as above and seeded for migration, and FIG. 3E) invasion transwell assays. Scale bar: 50 μm. FIG. 3F) After pRNA treatment for 48 h, the mRNA levels of ERα target genes TFF-1, FIG. 3G) c-Myc, and FIG. 3H) cyclin D1 in BT474 cells were determined by real-time PCR.
FIG. 7A) Six HER2-targeting RNA aptamers were selected from previous literatures, and their secondary structures were predicted using Srna-fold software. FIG. 7B) Six p2 strands containing the six different HER2 RNA aptamers were synthesized and annealed with the same p1 strand to generate six different pRNA-HER2apt-MED1 siRNA nanoparticles, respectively, followed by examination using 8% native PAGE gel electrophoresis. FIG. 7C) BT474 cells were treated with above pRNA nanoparticles for 48 h, and then MED1 protein level was determined by western blotting. […] FIG. 7D) 1 μg pRNA nanoparticles were incubated with recombinant Dicer enzyme (Genlantis) at 37° C. for 12 h, the product was separated by 8% native PAGE gel.
FIG. 9A) BT474 cells were treated with different concentrations of pRNA nanoparticles as indicated for 48 h. After that, MED1 protein level was determined by western blots, and FIG. 9B) the cell viability was determined by MTT assay.
Cell culture. Human breast cancer luciferase-overexpressing BT474 and MDA-MB-231 cells were maintained in DMEM medium (Hyclone, Thermo Scientific) supplemented with 10% fetal bovine serum (FBS, Sigma) and 1% penicillin/streptomycin (Corning) at 37° C. in a humidified atmosphere with 5% CO2.^53 • Generation of pRNA nanoparticles. The two strands of pRNA were synthesized with the DNA templates, which were amplified with overlapping primers (Sigma) by PCR methods, using a T7 promoter-controlled in vitro RNA transcription system as previously described^33 (Table 1). All the CTP and UTP used for synthesis of the pRNA nanoparticles were 2′-fluoro modified, except the control unmodified pRNA nanoparticles used in the stability assays. Following an overnight transcription at 37° C., RNA strands were purified using RNA clean and concentrator kits (ZYMO research) and examined by 8 M urea denatured 8% PAGE gel. pRNA nanoparticles were assembled by mixing the equal molar amounts of p1 and p2 strands and gradually annealing from 90° C. to 20° C. in 1×RNA annealing buffer containing 50 mM Tris-HCl (pH 7.5), 50 mM NaCl and 1 mM EDTA on a PCR machine. […] The hydrodynamic diameter and Tm value of pRNA nanoparticles were determined using dynamic light scattering and TGGE assay, respectively, as previously described.^54 The AFM imaging of the pRNA nanoparticles was performed at the University of Nebraska Medical Center imaging facility as previously reported.^55 Briefly, the pRNA nanoparticles (5 μL) were deposited on APS modified mica ^56 for a total of 2 min of incubation time. […]

Row | Molecule | tumor lung metastasis [1] | tumor growth ([1]; pRNA 4 mg/Kg i.v. once a week or tamoxifen 0.5 mg i.p. 5 days a week, three weeks) | efficiency of MED1 knockdown among six HER2 RNA aptamers in pRNA nanoparticles (MED1)
1 | CC/C(=C(\c1ccccc1)c1ccc(OCCN(C)C)cc1)c1ccccc1 [tamoxifen, reference compound] | multiple tumor lung metastasis foci | only weakly inhibited | –
2 | B3 aptamer: HER2-targeting RNA aptamer B3 (SEQ ID NO: 9), tested within pRNA-HER2apt-MED1 siRNA nanoparticles (rGrGrGrArGrGrAfCrGrAfUrGfCrGrGfUfCfUrGfCfUrGfUrGfCfUfUrGrAfUrAfUrGfCfCfCfCrArGrAfCrGrAfCfUfCrGfCfCfC; part of pRNA three-way junction nanoparticle with siRNA) | – | – | highest efficiency
3 | pRNA-HER2apt-siScram: control pRNA nanoparticle with HER2 aptamer and scramble siRNA; strands p1 SEQ ID NO: 1, p2 SEQ ID NO: 2 (nucleic acid, pRNA-HER2apt-siScram, p1; pRNA-HER2apt-siScram, p2) chain 1: GGAUCACGCUUCAUAUACAAAGGAUCAAUCAUGGCCAAUCUUAUUUCGCCCAUGACCUU chain 2: GGUCAUGGGCGAAAUAAGAAAGGCCAUGUGUAUGUGGGGGGAGGACGAUGCGGUCUGCUGUGCUUGAUAUGCCCCAGACGACUCGCCCCCCACAUACUUUGUUGAUCCAAUGUAUAUGAAGCGUGAUCCUU | multiple tumor lung metastasis foci | – | –
